# Where two headings read alike, the source gives them in different places.
# Assays:
# rumen methanogens = conditions: cited from earlier work
# [1] = system: methane production in ruminants; conditions: cited from earlier work
# [2] = 3-NOP to adsorbent ratio study; assay type: physicochemical; conditions: 24 hr, HPLC
# Description: Optimal loading of 3-NOP onto adsorbents was determined by varying ratios of 3-NOP to adsorbent. 3-NOP and adsorbent were speed mixed at 2000 rpm for 1 min at the following ratios by weight: 1:1.5, 1:2, 1:2.5. The adsorbed 3-NOP powder mixture was then placed in distilled water at 1% 3-NOP loading. The solution was allowed to equilibrate for 24 hr and then an aliquot was taken for HPLC to determine the reduction in 3-NOP concentration.
# [3] = 3-NOP:Adsorbent 1:1.5, distilled water at 1% 3-NOP loading
# [4] = 3-NOP:Adsorbent 1:2, distilled water at 1% 3-NOP loading
# [5] = 3-NOP:Adsorbent 1:2.5, distilled water at 1% 3-NOP loading
# [6] = beef cattle, fed at […] of DM intake
smiles,measurement,setting,value
"ClCBr [BCM, bromochloromethane]",toxicity or residues in meat,rumen methanogens; steers fed grain-based diets,no signs of toxicity or residues in meat
O=C(O)/C=C/c1ccc(O)c(O)c1 [Caffeic acid],Addition amount; maximum methane suppression amount,[1]; 12 mM,"12 mM, Caffeic acid; 37.58%;"
O=C(O)/C=C/c1ccc(O)cc1 [p-coumaric acid],Addition amount; maximum methane suppression amount,[1]; 12 mM,p-coumaric acid; 28.33%
N[C@@H](CCC(=O)O)C(=O)O [Glutamic acid],Average Integrated Area of 3-NOP in solution,[2]; [3],2445.9
same,Average Integrated Area of 3-NOP in solution,[2]; [4],2452.5
same,Average Integrated Area of 3-NOP in solution,[2]; [5],2446.3
ClC(Cl)Cl [chloroform],duration of substantial inhibition of methanogenesis,rumen methanogens; drenching to cattle,up to 32 days
Oc1ccc(C=Cc2cc(O)cc(O)c2)cc1 [resveratrol],Addition amount; maximum methane suppression amount,"[1]; 25 mg, high-concentrate diets",high-concentrate diets; 41%
same,Addition amount; maximum methane suppression amount,"[1]; 25 mg, high-forage diets","25 mg, high-forage diets; 60%;"
O=[N+]([O-])O [Nitrate],Addition amount; maximum methane suppression amount,"[1]; 5 mM (Liu et al., 2017)",5 mM 43.26%
same,Addition amount; maximum methane suppression amount,"[1]; 5 mmol/L (Wu et al., 2019)",5 mmol/L; 32.92%
same,Addition amount; maximum methane suppression amount,"[1]; 20 mg/g dry matter (Alvarez-Hess et al., 2019)",20 mg/g dry matter; 21%
CC(CO)[N+](=O)[O-] (stereo not drawn) [2-nitropropanol],lowering of CH4 production,rumen methanogens; steers,37%
same,Addition amount; maximum methane suppression amount,[1]; 10 mmol/L,41.7% (NPOH)
N=C(N)NCCC[C@H](N)C(=O)O [Arginine],Average Integrated Area of 3-NOP in solution,[2]; [3],2406.0
same,Average Integrated Area of 3-NOP in solution,[2]; [4],2372.8
same,Average Integrated Area of 3-NOP in solution,[2]; [5],2435.2
O=[N+]([O-])CCO [2-nitroethanol],Addition amount; maximum methane suppression amount,[1]; 10 mmol/L,"96.7% (NEOH),"
CC[C@@]1([C@@H]2O[C@@H]([C@H]3O[C@@](O)(CO)[C@H](C)C[C@@H]3C)C[C@@H]2C)CC[C@H]([C@]2(C)CC[C@]3(C[C@H](O)[C@@H](C)[C@@H]([C@@H](C)[C@@H](OC)[C@H](C)C(=O)O)O3)O2)O1 [monensin],CH4 production,"rumen methanogens; tropical cattle, 60 mg/day/cow",did not lower CH4 production
same,decrease of CH4 production,"rumen methanogens; tropical cattle, 250 mg/day/cow, DM intake lowered",about 30%
same,CH4 suppression,[1]; 10-15 ppm,no CH4 suppression was observed
same,lowering of CH4 production (g/kg DM intake),[1]; fed at 24-35 mg/kg diet,up to 10%
O=C(O)CC(O)C(=O)O (stereo not drawn) [Malate],decrease of CH4 production,rumen methanogens; [6],16%
same,reduction of CH4 per unit of DM intake,rumen methanogens; [6],9%

# Source: patent US20240189408A1, “COMPOSITIONS AND METHODS FOR REDUCING METHANE EMISSIONS IN RUMINANT POPULATIONS” (Arkea Bio Corp., priority 2022, published 2024)
